Reference: patent publication US20230212517A1, “METHODS FOR GENERATING HEMATOPOIETIC STEM CELLS” (The Brigham and Women's Hospital, Inc., priority 2018, published 2023)

Columns and labels:
[1] = system: primary transplant (recipient) mice; experiment: Delayed-type hypersensitivity assay in primary transplant mice; format: in vivo, mouse; details: primary transplant of treated E11.5 AGM
Experimental: Pulsating blood vessels like conditions were stimulated in vitro using FLEXCELL FX-4000 cell stretching bioreactor machine. To analyze roles of pharmacological targets in regulating the endothelial-to-HSC transition, mouse embryo-derived AGM or whole mouse embryo were exposed ex vivo with biomechanical stretching, chemicals, or drugs. Next, hematopoietic colony formation assays were performed by incubating mouse AGM-derived cells in StemCell M3434 media for seven days. Serial transplantation of AGM-derived HSCs in lethally irradiated SJL mice were performed. The stem cell frequency upon biomechanical stretching was analyzed using a limiting dilution assay. To characterize properties of AGM-HSC-derived blood cells in primary transplants, percentage chimerism and reconstitution was measured using FACS, globin transcripts were analyzed using quantitative reverse transcriptase-PCR, myeloperoxidase amount was measured using PICOKINE ELISA kit, TCR-β rearrangement was analyzed using PCR for TCR-β locus, pre-immune IG detection was analyzed using Thermo-Fisher Mouse Ig Isotyping kit, and delayed-type hypersensitivity was analyzed by injecting sheep RBC (Rockland Immunochemicals) in the footpad of pre-sensitized mice. […]

[2] = system: human iPSC-derived HE cells; experiment: Endothelial-to-hematopoietic transition in human iPSC-derived HE cells (FACS, CD34/CD45); format: cell-based; details: Yoda1 between 6.25 and 100 μM
Experimental: Embryoid body and hemogenic endothelium differentiation was performed as described in (Sugimura et al. 2017; Ditadi et al. 2015). Briefly, hiPSC colonies were dissociated with 0.05% trypsin for 5 min at 37° C., washed with PBS+2% FBS, and resuspended in STEMPRO-34 medium (Invitrogen, 10639-011) supplemented with L-glutamine (2 mM), penicillin/streptomycin (10 ng/ml), ascorbic acid (1 mM), human holo-Transferrin (150 μg/ml, Sigma T0665), monothioglycerol (MTG, 0.4 mM), BMP4 (10 ng/ml), and Y-27632 (10 μM). Five million cells were seeded into 10 cm dishes (Ezsphere, Asahi Glass) for the spheroid formation. On Day 1, bFGF (5 ng/ml) and BMP4 (10 ng/ml) was added to the medium. On Day 2, the media was changed with the STEMPRO-34 supplemented with SB431542 (6 μM), CHIR99021 (3 μM), bFGF (5 ng/ml), and BMP4 (10 ng/ml). On Day 3, the medium was replaced with STEMPRO-34 supplemented with VEGF (15 ng/ml) and bFGF (10 ng/ml). On day 6, the medium was changed to STEMPRO-34 supplemented with bFGF (5 ng/ml), VEGF (15 ng/ml), interleukin (IL)-6 (10 ng/ml), IGF-1 (25 ng/ml), IL-11 (5 ng/ml), SCF (50 ng/ml) and EPO (2IU). The cells were maintained in a 5% CO2, 5% O2 and 95% humidity incubator. […]

## Clc1cccc(Cl)c1CSc1nnc(-c2cnccn2)s1 [Yoda1, 2-[5-[[(2,6-Dichlorophenyl)methyl]thio]-1,3,4-thiadiazol-2-yl]-pyrazine]
[1]
  T-cell mediated immune response (footpad, sheep RBC challenge): possess T-cell mediated immune response
[2]
  dose dependence of the endothelial-to-hematopoietic transition: dose dependent
[2]; 7 days, data not shown
  endothelial-to-hematopoietic transition: induced the endothelial-to-hematopoietic transition
